Results as given in PMC9898036, “VIP152 is a selective CDK9 inhibitor with pre-clinical in vitro and in vivo efficacy in chronic lymphocytic leukemia” (Leukemia, 2022).
Where two headings read alike, the source gives them in different places.

What was measured:
Assay in all cases: DiscoverX KINOMEscan kinase profiling (468 assays)
Type in all cases: binding
human kinome [1] = target: human kinome (Homo sapiens, UniProt O14730); details: kinase RIOK3 (Entrez RIOK3); compound concentration 1000 nM; read-out: Percent Control
Method: (§1) Kinomescan Kinase Profiling Assay
(§2) Kinomescan Assay was performed at DiscoverRX and described in Fabian, et al. 2005, Nat.
(§3) Biotechnol. In brief, kinases were produced and subsequently tagged with DNA for qPCR detection.
(§4) Streptavidin-coated magnetic beads were bound to biotinylated kinase ligands to serve as a solid support.
(§5) VIP152 was dissolved in DMSO and tested across a 10 serial threefold dilution set and compared to a test
(§6) compound and a DMSO control.
(§7) Kinome map was produced via TreeSpot
(§8) Analysis from DiscoverRX. […]

human kinome [2] = target: human kinome (Homo sapiens, UniProt Q8N568); details: DCAMKL2 (Entrez DCLK2); 100 nM; read-out: Percent Control
Method: as §1, §2, §3, §4, §5, §6, §7, §8

human kinome [3] = target: human kinome (Homo sapiens, UniProt Q14680); details: MELK; 100 nM; read-out: Percent Control
Method: as §1, §2, §3, §4, §5, §6, §7, §8

human kinome [4] = target: human kinome (Homo sapiens, UniProt Q12852); details: DLK (Entrez MAP3K12); 100 nM; read-out: Percent Control
Method: as §1, §2, §3, §4, §5, §6, §7, §8

human kinome [5] = target: human kinome (Homo sapiens, UniProt P31152); details: ERK4 (Entrez MAPK4); 100 nM; read-out: Percent Control
Method: as §1, §2, §3, §4, §5, §6, §7, §8

human kinome [6] = target: human kinome (Homo sapiens, UniProt Q9UF33); details: EPHA6; 100 nM; read-out: Percent Control
Method: as §1, §2, §3, §4, §5, §6, §7, §8

human kinome [7] = target: human kinome (Homo sapiens, UniProt O00750); details: read-out: Percent Control
Method: as §1, §2, §3, §4, §5, §6, §7, §8

human kinome [8] = target: human kinome (Homo sapiens, UniProt P10721, V559D/V654A); details: KIT(V559D,V654A); 100 nM; read-out: Percent Control
Method: as §1, §2, §3, §4, §5, §6, §7, §8

human kinome [9] = target: human kinome (Homo sapiens, UniProt O43293); details: DAPK3; 100 nM; read-out: Percent Control
Method: as §1, §2, §3, §4, §5, §6, §7, §8

human kinome [10] = target: human kinome (Homo sapiens, UniProt O43353); details: kinase RIPK2 (Entrez RIPK2); compound concentration 1000 nM; read-out: Percent Control
Method: as §1, §2, §3, §4, §5, §6, §7, §8

human kinome [11] = target: human kinome (Homo sapiens, UniProt Q13470); details: kinase TNK1 (Entrez TNK1); compound concentration 1000 nM; read-out: Percent Control
Method: as §1, §2, §3, §4, §5, §6, §7, §8

human kinome [12] = target: human kinome (Homo sapiens, UniProt P30530); details: AXL; 100 nM; read-out: Percent Control
Method: as §1, §2, §3, §4, §5, §6, §7, §8

human kinome [13] = target: human kinome (Homo sapiens, UniProt O75676); details: compound concentration 1000 nM, read-out: Percent Control
Method: as §1, §2, §3, §4, §5, §6, §7, §8

human kinome [14] = target: human kinome (Homo sapiens, UniProt P42684); details: ABL2; 100 nM; read-out: Percent Control
Method: as §1, §2, §3, §4, §5, §6, §7, §8

human kinome [15] = target: human kinome (Homo sapiens, UniProt P15056, V600E); details: BRAF(V600E); 100 nM; read-out: Percent Control
Method: as §1, §2, §3, §4, §5, §6, §7, §8

human kinome [16] = target: human kinome (Homo sapiens, UniProt P51956); details: read-out: Percent Control
Method: as §1, §2, §3, §4, §5, §6, §7, §8

human kinome [17] = target: human kinome (Homo sapiens, UniProt O95747); details: read-out: Percent Control
Method: as §1, §2, §3, §4, §5, §6, §7, §8

human kinome [18] = target: human kinome (Homo sapiens, UniProt Q9H1R3); details: read-out: Percent Control
Method: as §1, §2, §3, §4, §5, §6, §7, §8

human kinome [19] = target: human kinome (Homo sapiens, UniProt Q9UIK4); details: DAPK2; 100 nM; read-out: Percent Control
Method: as §1, §2, §3, §4, §5, §6, §7, §8

human kinome [20] = target: human kinome (Homo sapiens, UniProt Q15418); details: compound concentration 1000 nM, read-out: Percent Control
Method: as §1, §2, §3, §4, §5, §6, §7, §8

human kinome [21] = target: human kinome (Homo sapiens, UniProt P10721, D816V); details: KIT(D816V); 100 nM; read-out: Percent Control
Method: as §1, §2, §3, §4, §5, §6, §7, §8

human kinome [22] = target: human kinome (Homo sapiens, UniProt Q15759); details: read-out: Percent Control
Method: as §1, §2, §3, §4, §5, §6, §7, §8

human kinome [23] = target: human kinome (Homo sapiens, UniProt P45985); details: MEK4 (Entrez MAP2K4); 100 nM; read-out: Percent Control
Method: as §1, §2, §3, §4, §5, §6, §7, §8

human kinome [24] = target: human kinome (Homo sapiens, UniProt Q8N752); details: CSNK1A1L; 100 nM; read-out: Percent Control
Method: as §1, §2, §3, §4, §5, §6, §7, §8

human kinome [25] = target: human kinome (Homo sapiens, UniProt Q8WU08); details: kinase YANK1 (Entrez STK32A); compound concentration 1000 nM; read-out: Percent Control
Method: as §1, §2, §3, §4, §5, §6, §7, §8

human kinome [26] = target: human kinome (Homo sapiens, UniProt P15056); details: BRAF; 100 nM; read-out: Percent Control
Method: as §1, §2, §3, §4, §5, §6, §7, §8

human kinome [27] = target: human kinome (Homo sapiens, UniProt P0C264); details: kinase SgK110 (Entrez SgK110); compound concentration 1000 nM; read-out: Percent Control
Method: as §1, §2, §3, §4, §5, §6, §7, §8

human kinome [28] = target: human kinome (Homo sapiens, UniProt Q9UM73); details: ALK; 100 nM; read-out: Percent Control
Method: as §1, §2, §3, §4, §5, §6, §7, §8

human kinome [29] = target: human kinome (Homo sapiens, UniProt Q2M2I8); details: AAK1; 100 nM; read-out: Percent Control
Method: as §1, §2, §3, §4, §5, §6, §7, §8

human kinome (Homo sapiens, UniProt O75676), sequence (O75676 whole entry): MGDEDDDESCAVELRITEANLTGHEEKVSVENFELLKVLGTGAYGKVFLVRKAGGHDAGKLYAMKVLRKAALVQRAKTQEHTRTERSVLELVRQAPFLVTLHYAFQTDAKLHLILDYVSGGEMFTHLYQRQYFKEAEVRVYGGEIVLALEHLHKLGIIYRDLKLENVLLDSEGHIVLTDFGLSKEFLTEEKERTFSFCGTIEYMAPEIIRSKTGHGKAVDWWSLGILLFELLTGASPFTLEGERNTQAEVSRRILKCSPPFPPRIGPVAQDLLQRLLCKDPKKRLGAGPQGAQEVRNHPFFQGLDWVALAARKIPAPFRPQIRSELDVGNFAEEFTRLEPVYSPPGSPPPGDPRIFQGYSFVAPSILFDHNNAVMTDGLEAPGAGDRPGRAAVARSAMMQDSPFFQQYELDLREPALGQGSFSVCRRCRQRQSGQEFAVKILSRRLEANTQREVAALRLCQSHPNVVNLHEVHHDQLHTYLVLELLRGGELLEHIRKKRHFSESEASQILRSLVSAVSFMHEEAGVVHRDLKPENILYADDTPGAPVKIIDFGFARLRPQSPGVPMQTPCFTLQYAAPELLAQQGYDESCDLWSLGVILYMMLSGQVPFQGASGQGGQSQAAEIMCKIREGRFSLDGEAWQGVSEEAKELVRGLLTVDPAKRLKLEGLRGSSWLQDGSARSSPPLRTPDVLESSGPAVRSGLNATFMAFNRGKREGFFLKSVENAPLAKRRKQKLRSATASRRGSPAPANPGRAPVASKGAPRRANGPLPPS
human kinome (Homo sapiens, UniProt Q15418), sequence (Q15418 whole entry): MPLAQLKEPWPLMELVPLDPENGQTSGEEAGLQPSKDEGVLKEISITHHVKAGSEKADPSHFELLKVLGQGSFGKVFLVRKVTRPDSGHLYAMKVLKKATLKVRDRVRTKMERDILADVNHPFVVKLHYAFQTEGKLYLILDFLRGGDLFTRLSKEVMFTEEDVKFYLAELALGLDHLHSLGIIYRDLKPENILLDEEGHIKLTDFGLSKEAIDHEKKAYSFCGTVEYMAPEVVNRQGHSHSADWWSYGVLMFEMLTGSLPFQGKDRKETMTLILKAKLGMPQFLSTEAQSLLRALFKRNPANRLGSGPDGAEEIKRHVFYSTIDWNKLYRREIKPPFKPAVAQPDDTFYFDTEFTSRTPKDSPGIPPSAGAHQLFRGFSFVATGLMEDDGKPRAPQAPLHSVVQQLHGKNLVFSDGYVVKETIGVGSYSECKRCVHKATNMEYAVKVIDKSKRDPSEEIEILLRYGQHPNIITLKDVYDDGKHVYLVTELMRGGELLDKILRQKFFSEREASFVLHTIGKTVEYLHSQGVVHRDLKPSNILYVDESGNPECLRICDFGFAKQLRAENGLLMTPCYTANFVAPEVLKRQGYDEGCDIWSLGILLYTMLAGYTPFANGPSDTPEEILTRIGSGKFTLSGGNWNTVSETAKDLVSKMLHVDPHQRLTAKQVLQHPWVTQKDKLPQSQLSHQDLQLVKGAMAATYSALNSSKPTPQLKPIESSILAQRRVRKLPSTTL
human kinome (Homo sapiens, UniProt O95747), sequence (O95747 whole entry): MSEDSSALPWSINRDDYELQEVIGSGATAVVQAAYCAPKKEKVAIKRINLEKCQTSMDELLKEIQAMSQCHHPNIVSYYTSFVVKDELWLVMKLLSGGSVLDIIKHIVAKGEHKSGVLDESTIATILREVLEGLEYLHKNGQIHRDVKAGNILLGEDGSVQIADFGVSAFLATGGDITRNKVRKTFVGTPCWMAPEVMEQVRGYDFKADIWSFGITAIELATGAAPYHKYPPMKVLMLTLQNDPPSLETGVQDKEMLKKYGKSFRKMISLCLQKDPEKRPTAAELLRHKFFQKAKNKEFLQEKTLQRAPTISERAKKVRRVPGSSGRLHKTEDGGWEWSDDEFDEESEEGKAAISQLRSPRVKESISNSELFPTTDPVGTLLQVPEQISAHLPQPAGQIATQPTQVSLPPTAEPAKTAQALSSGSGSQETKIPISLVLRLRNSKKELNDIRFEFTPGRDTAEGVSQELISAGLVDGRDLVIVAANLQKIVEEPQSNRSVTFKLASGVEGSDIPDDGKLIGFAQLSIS
human kinome (Homo sapiens, UniProt Q15759), sequence (Q15759 whole entry): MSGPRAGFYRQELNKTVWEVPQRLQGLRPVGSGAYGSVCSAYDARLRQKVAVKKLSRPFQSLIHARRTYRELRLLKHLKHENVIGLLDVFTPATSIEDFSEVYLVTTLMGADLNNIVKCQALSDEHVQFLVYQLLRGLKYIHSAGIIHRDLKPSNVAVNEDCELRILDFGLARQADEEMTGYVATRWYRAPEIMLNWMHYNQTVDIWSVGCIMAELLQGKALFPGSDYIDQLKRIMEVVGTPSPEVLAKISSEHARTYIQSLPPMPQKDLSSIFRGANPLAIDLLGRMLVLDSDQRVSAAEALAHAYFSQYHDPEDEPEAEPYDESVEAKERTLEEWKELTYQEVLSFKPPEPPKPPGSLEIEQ
human kinome (Homo sapiens, UniProt O00750), sequence (O00750 whole entry): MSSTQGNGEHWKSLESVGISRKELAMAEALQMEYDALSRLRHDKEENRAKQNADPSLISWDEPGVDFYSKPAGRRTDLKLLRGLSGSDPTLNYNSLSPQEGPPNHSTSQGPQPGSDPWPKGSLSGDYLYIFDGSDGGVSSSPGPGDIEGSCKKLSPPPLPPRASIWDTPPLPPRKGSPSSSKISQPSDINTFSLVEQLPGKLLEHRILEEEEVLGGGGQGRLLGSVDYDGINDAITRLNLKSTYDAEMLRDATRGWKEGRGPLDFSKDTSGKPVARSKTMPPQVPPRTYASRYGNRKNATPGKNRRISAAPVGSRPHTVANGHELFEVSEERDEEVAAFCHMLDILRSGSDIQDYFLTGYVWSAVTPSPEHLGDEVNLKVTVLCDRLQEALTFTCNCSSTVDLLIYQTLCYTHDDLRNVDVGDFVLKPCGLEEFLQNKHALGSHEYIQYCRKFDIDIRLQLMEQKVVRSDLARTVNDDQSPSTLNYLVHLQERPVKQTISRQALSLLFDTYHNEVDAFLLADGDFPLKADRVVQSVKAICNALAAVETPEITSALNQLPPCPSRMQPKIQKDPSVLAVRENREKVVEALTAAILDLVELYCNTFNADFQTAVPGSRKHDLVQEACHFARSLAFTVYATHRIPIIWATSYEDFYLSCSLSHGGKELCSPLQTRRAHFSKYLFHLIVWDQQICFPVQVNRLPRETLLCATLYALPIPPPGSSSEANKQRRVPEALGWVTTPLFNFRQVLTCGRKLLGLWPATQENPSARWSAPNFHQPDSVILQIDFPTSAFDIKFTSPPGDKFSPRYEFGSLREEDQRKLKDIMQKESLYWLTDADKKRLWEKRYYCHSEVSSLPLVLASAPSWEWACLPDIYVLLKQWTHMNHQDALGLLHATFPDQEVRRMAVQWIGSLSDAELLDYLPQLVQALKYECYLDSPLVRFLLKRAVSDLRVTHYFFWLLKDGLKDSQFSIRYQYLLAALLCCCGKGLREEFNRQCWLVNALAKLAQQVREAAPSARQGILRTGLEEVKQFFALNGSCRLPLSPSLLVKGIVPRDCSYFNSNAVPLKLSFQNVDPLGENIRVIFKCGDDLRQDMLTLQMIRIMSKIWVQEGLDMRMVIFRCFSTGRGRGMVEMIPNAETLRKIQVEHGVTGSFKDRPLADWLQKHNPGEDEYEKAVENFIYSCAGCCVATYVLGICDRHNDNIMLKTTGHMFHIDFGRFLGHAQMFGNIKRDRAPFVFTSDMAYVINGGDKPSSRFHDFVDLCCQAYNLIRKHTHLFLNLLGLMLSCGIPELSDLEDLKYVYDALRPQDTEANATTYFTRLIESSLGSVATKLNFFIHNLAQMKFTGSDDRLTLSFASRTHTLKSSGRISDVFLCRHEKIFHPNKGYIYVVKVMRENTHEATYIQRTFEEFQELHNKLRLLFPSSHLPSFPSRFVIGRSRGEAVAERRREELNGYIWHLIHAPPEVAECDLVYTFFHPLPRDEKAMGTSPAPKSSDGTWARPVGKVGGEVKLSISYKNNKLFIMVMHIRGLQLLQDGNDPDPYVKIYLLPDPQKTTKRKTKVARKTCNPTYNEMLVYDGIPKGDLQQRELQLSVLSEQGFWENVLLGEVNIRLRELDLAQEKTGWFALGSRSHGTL
human kinome (Homo sapiens, UniProt Q9H1R3), sequence (Q9H1R3 whole entry): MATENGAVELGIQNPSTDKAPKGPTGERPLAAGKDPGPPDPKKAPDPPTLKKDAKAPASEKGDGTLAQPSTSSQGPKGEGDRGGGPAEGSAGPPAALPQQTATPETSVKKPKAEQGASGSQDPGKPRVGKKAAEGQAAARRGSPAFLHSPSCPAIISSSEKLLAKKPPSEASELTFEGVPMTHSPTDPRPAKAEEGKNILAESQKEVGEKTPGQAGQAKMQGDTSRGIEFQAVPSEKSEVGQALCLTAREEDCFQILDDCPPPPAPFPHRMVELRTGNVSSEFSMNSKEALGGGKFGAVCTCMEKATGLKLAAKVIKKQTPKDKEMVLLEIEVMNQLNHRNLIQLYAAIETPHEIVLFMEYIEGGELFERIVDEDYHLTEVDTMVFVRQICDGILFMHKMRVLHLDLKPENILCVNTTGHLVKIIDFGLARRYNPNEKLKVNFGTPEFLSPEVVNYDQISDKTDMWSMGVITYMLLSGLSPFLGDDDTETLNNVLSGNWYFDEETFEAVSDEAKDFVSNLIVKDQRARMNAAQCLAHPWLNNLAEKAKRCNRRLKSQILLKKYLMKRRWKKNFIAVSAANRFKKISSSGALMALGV
human kinome (Homo sapiens, UniProt Q8WU08), sequence (Q8WU08 whole entry): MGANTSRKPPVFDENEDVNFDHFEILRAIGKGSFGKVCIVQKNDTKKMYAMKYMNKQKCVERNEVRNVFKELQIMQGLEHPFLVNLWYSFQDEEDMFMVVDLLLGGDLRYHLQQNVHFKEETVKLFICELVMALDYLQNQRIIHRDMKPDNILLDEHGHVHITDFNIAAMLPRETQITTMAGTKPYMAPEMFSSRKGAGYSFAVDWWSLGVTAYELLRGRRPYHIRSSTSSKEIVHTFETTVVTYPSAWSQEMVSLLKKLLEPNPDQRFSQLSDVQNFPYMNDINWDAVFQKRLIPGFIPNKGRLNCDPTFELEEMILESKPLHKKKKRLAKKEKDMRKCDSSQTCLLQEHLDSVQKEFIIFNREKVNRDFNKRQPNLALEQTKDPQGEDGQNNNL

SMILES: COc1cc(F)ccc1-c1cc(Nc2cc(CS(C)(=N)=O)ccn2)ncc1F (stereo not drawn) [VIP152]
- remaining binding at 1 µM (human kinome [1]): 79%
- remaining binding at 0.1 µM (human kinome [2]): 100%
- remaining binding at 0.1 µM (human kinome [3]): 91%
- remaining binding at 0.1 µM (human kinome [4]): 100%
- remaining binding at 0.1 µM (human kinome [5]): 100%
- remaining binding at 0.1 µM (human kinome [6]): 100%
- remaining binding at 0.1 µM (human kinome [7]; PIK3C2B, 100 nM): 100%
- remaining binding at 1 µM (human kinome [7]; kinase PIK3C2B (Entrez PIK3C2B), compound concentration 1000 nM): 90%
- remaining binding at 0.1 µM (human kinome [8]): 100%
- remaining binding at 0.1 µM (human kinome [9]): 100%
- remaining binding at 1 µM (human kinome [10]): 49%
- remaining binding at 1 µM (human kinome [11]): 82%
- remaining binding at 0.1 µM (human kinome [12]): 100%
- remaining binding at 1 µM (human kinome [13]; kinase RPS6KA4(Kin.Dom.1-N-terminal) (Entrez RPS6KA4)): 85%
- remaining binding at 1 µM (human kinome [13]; kinase RPS6KA4(Kin.Dom.2-C-terminal) (Entrez RPS6KA4)): 71%
- remaining binding at 0.1 µM (human kinome [14]): 100%
- remaining binding at 0.1 µM (human kinome [15]): 100%
- remaining binding at 0.1 µM (human kinome [16]; NEK3, 100 nM): 98%
- remaining binding at 1 µM (human kinome [16]; kinase NEK3 (Entrez NEK3), compound concentration 1000 nM): 62%
- remaining binding at 0.1 µM (human kinome [17]; OSR1 (Entrez OXSR1), 100 nM): 100%
- remaining binding at 1 µM (human kinome [17]; kinase OSR1 (Entrez OXSR1), compound concentration 1000 nM): 100%
- remaining binding at 0.1 µM (human kinome [18]; MYLK2, 100 nM): 100%
- remaining binding at 1 µM (human kinome [18]; kinase MYLK2 (Entrez MYLK2), compound concentration 1000 nM): 91%
- remaining binding at 0.1 µM (human kinome [19]): 100%
- remaining binding at 1 µM (human kinome [20]; kinase RSK1(Kin.Dom.1-N-terminal) (Entrez RPS6KA1)): 95%
- remaining binding at 1 µM (human kinome [20]; kinase RSK1(Kin.Dom.2-C-terminal) (Entrez RPS6KA1)): 89%
- remaining binding at 0.1 µM (human kinome [21]): 100%
- remaining binding at 1 µM (human kinome [22]; kinase p38-beta (Entrez MAPK11), compound concentration 1000 nM): 100%
- remaining binding at 0.1 µM (human kinome [22]; p38-beta (Entrez MAPK11), 100 nM): 100%
- remaining binding at 0.1 µM (human kinome [23]): 100%
- remaining binding at 0.1 µM (human kinome [24]): 100%
- remaining binding at 1 µM (human kinome [25]): 97%
- remaining binding at 0.1 µM (human kinome [26]): 100%
- remaining binding at 1 µM (human kinome [27]): 100%
- remaining binding at 0.1 µM (human kinome [28]): 100%
- remaining binding at 0.1 µM (human kinome [29]): 100%
